Results reported in US20220347323A1, “Positron Emission Tomography Guided Delivery of Mitochondral Complex I Inhibitors” (priority 2019, published 2022).
Entries after “also recorded” stand apart in the source; their conditions may differ.

Assays:
[1] = test system: Kras/Lkb1 lung tumors; assay: Ki67 staining of TTF1+ and CK5+ Kras/Lkb1 tumors after treatment; assay type: in vivo, mouse; conditions: 15 mg/kg/day, 12 days
[2] = test system: Kras/Lkb1 lung tumors; assay: Treatment of Kras/Lkb1 mice, tumor burden; assay type: in vivo, mouse
[3] = test system: A549 and RH2 cells; assay: Cell viability of human ADC (A549) and SCC (RH2) cell lines; assay type: cell-based; conditions: A549 vs RH2, 48 hr, low doses
From the text: (§1) Experiments were repeated twice.

[4] = test system: A549 cells; assay: Mitochondrial membrane potential (ΔΨ) by TMRE flow cytometry, A549; assay type: cell-based, human; conditions: A549, short-term treatment 3 hr
Protocol: Experiments were conducted by analyzing TMRE fluorescence using flow cytometry. […] Cells were resuspended in 0.5 ml DMEM with 5% FBS containing different concentrations of phenformin or oligomycin or FCCP as indicated in figure legends. […] Cells were washed twice in phenol red free DMEM and cellular fluorescence was acquired with a BD LSRII analyzer at UCLA Flow Cytometry Core. Data was analyzed with Flowing Software.

[5] = Phenformin quantification in lung tumors by LC/MS; assay type: in vivo, mouse; conditions: 100-200 mg/kg oral gavage, 5 days, vs vehicle
Protocol: Tumors were homogenized with a Tissue Master (Omni international) in 1 ml chilled 80% Methanol. Tumor suspensions were spun down at 4° C. for 5 min at 17,000g, and the top layer taken as extracted metabolites. The volume equivalent of 1 mg of tumor was transferred into glass vials and the samples were dried with a EZ2-Elite lyophilizer (Genevac). Dried metabolites were re-suspended in 100 μl of 50%:50% acetonitrile (ACN):dH20 solution; 10 μl of these suspensions were injected per analysis. Samples were run on a Vanquish (Thermo Scientific) UHPLC system with mobile phase A (5 mM NH4AcO, pH 9.9) and mobile phase B (ACN). […] The UHPLC was coupled to a Q-Exactive (Thermo Scientific) mass analyzer running in positive mode at 3.5 kV with an MS1 resolution of 70,000. Metabolites were identified using exact mass (MS1), retention time, and fragmentation patterns (MS2) at normalized collision energy (NCE) 35. Quantification was performed via area under the curve (AUC) integration of MS1 ion chromatograms with the MZmine 2 software package. For the quantification of absolute moles of phenformin, one tumor from the vehicle group was selected to provide a representative tumor small molecular matrix. […]

[6] = test system: Kras/Lkb1 lung tumors; assay: Cleaved caspase 3 and Ki67 staining of Kras/Lkb1 tumors; assay type: in vivo, mouse; conditions: short-term 5 day treatment
Protocol: After the fixation step in 10% neutral buffered formalin overnight, lungs were transferred to 70% ethanol and further processing and embedding was done by the TPCL at UCLA. The following antibodies were used: anti-CK5 (EP1601Y) (abcam, ab52635 1:100), anti-TTF1 (8G7G3/1) (Dako, 1:1000), anti-Ki67 (SP6) (Thermo-Scientific, RM-9106-SO 1:200), anti-Glut1 (alpha-diagnostic, GT11-A, 1:400). Slides were scanned onto a ScanScope AT (Aperio Technologies Inc.). Digital slides were analyzed with Definiens and QuPath software.

[7] = test system: mouse adenocarcinoma and squamous cell carcinoma cell lines; assay: Cell viability of mouse adenocarcinoma and squamous cell carcinoma cell lines; assay type: cell-based; conditions: 48 hr, low doses
From the text: as §1

[8] = test system: A549 cells; assay: In vitro 18FBnTP uptake assay, A549; assay type: cell-based, human; conditions: A549, 1 mM, 3 hr
[9] = test system: Kras/Lkb1 lung tumors; assay: 18FBnTP PET of lung tumors in Kras/Lkb1 GEMMS before and after treatment; assay type: in vivo, mouse; conditions: 5 days, vs vehicle
From the text: We performed studies with the genetically engineered mouse model of lung cancer using Kras-Lox-Stop-Lox-G12D; Lkb1 Lox/Lox; Rosa26-Lox-Stop-Lox-Luc mice (KL) as described previously [Ref. 33]. Briefly, lung tumors were induced by intranasal administration of 5×10^5 transduction units of Lenti-PGK-Cre (Cat. #FCT071, Kerafast,) as previously described [Ref. 9, 33]. Lentiviral delivery of Cre recombinase to KL mice leads to near 100% development of lung adenocarcinomas [Ref. 36]. KL mice that were inhaled with LentiCre were used in studies with Phenformin treatment. For studies where mice were imaged with both ^18FBnTP and ^18F-FDG probes, KL mice were inhaled with Adenoviral Cre, which leads to development of both ADC and SCC tumors. For all treatments, KL mice were imaged with ^18FBnTP and sorted into two groups based on tumor maximum percent injected dose per gram (%ID/g) values, so that two groups would have similar maximum %ID/g values. Treatment was initiated on the same day or on the following day after ^18FBnTP imaging. Mice were treated with 125 mg/kg/day phenformin for 5 days or 15 mg/kg/day IACS-010759 for 12 days. The drugs were delivered by oral gavage. All experimental procedures that were performed on mice were approved by the UCLA Animal Research Committee (ARC). Both male and female mice were used in all experiments and no preference in mouse gender was given for any of the studies.
In order to reduce variability between mice imaged with ^18FBnTP, maximum percent injected dose per gram (%ID/g) for each tumor was normalized to maximum %ID/g of heart as indicated in the figures. For waterfall plots in FIG. 2m and FIGS. 8e-8f, we calculated % change in the uptake of the ^18FBnTP probe post-treatment relative to pre-treatment using maximum %ID/g of the tumor that was normalized to maximum %ID/g of the heart for each mouse.

[10] = test system: A549 cells; assay: Respirometry (Seahorse OCR), A549; assay type: cell-based, human; conditions: A549, 1 mM, 45 min
Protocol: Experiments were conducted on a Seahorse XF96 Extracellular Flux Analyzer (Agilent Technologies) in order to measure oxygen consumption rate (OCR) and extracellular acidification rate (ECAR). […] On the day of the experiment, assay medium (Seahorse XF Base Medium supplemented with 2 mM L-glutamine, 1mM Pyruvate and 10 mM glucose) was freshly prepared. The cells were washed twice with assay medium and brought to a final volume of 175 μL per well. The XF96 plate was placed in a 37° C. incubator without CO2 for 30 minutes prior to loading the plate into the instrument. Injection of compounds during the assay included: the mitochondrial ATP Synthase inhibitor oligomycin (final concentration of 2 μM); the chemical uncoupler, FCCP (final concentration of 1 μM); and the Complex I inhibitors rotenone (final concentrations 2 μM) and phenformin (final concentration 1 mM) and Complex III inhibitor antimycin A (final concentrations of 2 μM). […] Activity of complex I was measured in permeabilized cells using XF PMP assay where complex I dependent OCR was measured by determining OCR in the presence of pyruvate and malate (as substrates for complex I) before and after addition of rotenone (complex I inhibitor).

[11] = test system: Kras/Lkb1 tumors; conditions: cited from earlier work

Row | Structure (SMILES) | Ki67 positive cells in TTF1+ ADCs [1] | response of CK5+ SCCs (Ki67) [1] | tumor burden (percent of lung area occupied by tumor) ([2]; 15 mg/kg/day oral gavage, 12 days, vs vehicle) | sensitivity of 18FBnTP POS tumors to complex I inhibition ([2]; Kras/Lkb1 mice) | sensitivity (cell viability) of lung ADC line vs SCC line [3] | ΔΨ measured by TMRE staining [4] | phenformin in lung tumor tissue by mass spectrometry [5] | cleaved caspase 3 and Ki67 staining (apoptosis, proliferation) [6] | sensitivity (cell viability) of lung ADC line vs SCC line [7] | 18FBnTP uptake (gamma counter) [8] | 18FBnTP uptake in lung tumors post-treatment ([9]; 125 mg/kg/day oral gavage) | 18FBnTP uptake in lung tumors, three independent experiments ([9]; 125 mg/kg/day) | change in 18FBnTP uptake post-treatment to pre-treatment ([9]; 125 mg/kg/day) | cellular OXPHOS (OCR) by respirometry [10] | cellular apoptosis after longer treatment ([11]; 4-8 weeks treatment, Ref. 9,19) | sensitivity of Kras/Lkb1 tumors ([11]; Ref. 9) | response of lung SCC tumors from Kras/Lkb1 mice ([11]; Ref. 19,33)
1 | Cc1nc(-c2nc(-c3ccc(OC(F)(F)F)cc3)no2)nn1Cc1cccc(N2CCC(S(C)(=O)=O)CC2)c1 [IACS-010759] | significant reduction in Ki67 positive cells | refractory | significant reduction in tumor burden | sensitive | more sensitive | – | – | – | – | – | – | – | – | – | – | – | –
2 | [H]/N=C(/N)N/C(=N/[H])NCCc1ccccc1 [phenformin] | – | – | – | – | more sensitive | significantly reduced ΔΨ in a dose dependent manner | significant increase in phenformin in tumors | no evidence of phenformin induced apoptosis or reduced cell viability; also recorded: does not induced changes in proliferation or apoptosis | more sensitive | significantly reduced | significant reduction; also recorded: suppresses | significant reduction | significant drop in tracer uptake | significant reduction of cellular OXPHOS | resulted in cellular apoptosis | sensitive | refractory
